Assay results published in the NIST ThermoML archive (doi:10.1021/je049595u).

Tests used:
[1] = Molar enthalpy of transition or fusion; settings: Crystal
[2] = molar heat capacity at saturation pressure; settings: Crystal, Vacuum adiabatic calorimetry

Cc1ccc2ccccc2n1 [2-methylquinoline]
Settings | mass density [kg/m3] | vapor or sublimation pressure [kPa]
319.99 K, Liquid, Inclined piston gauge | – | 0.0315
329.98 K, Liquid, Inclined piston gauge | – | 0.063
339.99 K, Liquid, Inclined piston gauge | – | 0.1198
349.98 K, Liquid, Inclined piston gauge | – | 0.2174
364.98 K, Liquid, Inclined piston gauge | – | 0.4962
374.98 K, Liquid, Inclined piston gauge | – | 0.8233
384.97 K, Liquid, Inclined piston gauge | – | 1.323
394.24 K, Liquid, Twin ebulliometer | – | 2
394.97 K, Liquid, Inclined piston gauge | – | 2.066
404.97 K, Liquid, Inclined piston gauge | – | 3.141
411.02 K, Liquid, Twin ebulliometer | – | 4
418.53 K, Liquid, Twin ebulliometer | – | 5.333
429.68 K, Liquid, Twin ebulliometer | – | 7.999
438.05 K, Liquid, Twin ebulliometer | – | 10.67
444.81 K, Liquid, Twin ebulliometer | – | 13.33
451.84 K, Liquid, Twin ebulliometer | – | 16.66
457.68 K, Liquid, Twin ebulliometer | – | 19.93
465.36 K, Liquid, Twin ebulliometer | – | 25.02
473.1 K, Liquid, Twin ebulliometer | – | 31.18
480.89 K, Liquid, Twin ebulliometer | – | 38.56
488.72 K, Liquid, Twin ebulliometer | – | 47.38
496.61 K, Liquid, Twin ebulliometer | – | 57.82
504.55 K, Liquid, Twin ebulliometer | – | 70.12
512.53 K, Liquid, Twin ebulliometer | – | 84.53
520.57 K, Liquid, Twin ebulliometer | – | 101.33
528.66 K, Liquid, Twin ebulliometer | – | 120.79
536.8 K, Liquid, Twin ebulliometer | – | 143.25
544.98 K, Liquid, Twin ebulliometer | – | 169.02
553.22 K, Liquid, Twin ebulliometer | – | 198.49
561.5 K, Liquid, Twin ebulliometer | – | 232.02
569.83 K, Liquid, Twin ebulliometer | – | 270.02
762.9 K, Gas, Measured as part of TC determination by DSC | 163.3 | –
773.9 K, Liquid, Measured as part of TC determination by DSC | 410.8 | –
775.2 K, Gas, Measured as part of TC determination by DSC | 236.6 | –
775.9 K, Liquid, Measured as part of TC determination by DSC | 355.4 | –
777.9 K, Gas, Measured as part of TC determination by DSC | 292.9 | –

Settings | Critical temperature [K] | mass density [kg/m3] | molar heat capacity [J/K/mol]
323.14 K, Liquid | – | 1035.2 | –
348.14 K, Liquid | – | 1015.9 | –
373.12 K, Liquid | – | 996.1 | –
398.12 K, Liquid | – | 973.9 | –
423.11 K, Liquid | – | 952.8 | –
448.11 K, Liquid | – | 931.9 | –
473.11 K, Liquid | – | 910.8 | –
498.11 K, Liquid | – | 888.8 | –
523.11 K, Liquid | – | 865.1 | –
Liquid, DTA | 778 | – | –
[2], 5 K | – | – | 0.46
[2], 5.565 K | – | – | 0.62
[2], 6.404 K | – | – | 0.956
[2], 7.354 K | – | – | 1.4
[2], 8.354 K | – | – | 1.96
[2], 9.372 K | – | – | 2.64
[2], 10 K | – | – | 3.14
[2], 10.39 K | – | – | 3.48
[2], 11.53 K | – | – | 4.41
[2], 12.8 K | – | – | 5.65
[2], 14.21 K | – | – | 7.09
[2], 15.75 K | – | – | 8.78
[2], 17.46 K | – | – | 10.78
[2], 19.36 K | – | – | 13.04
[2], 20 K | – | – | 13.79
[2], 21.49 K | – | – | 15.56
[2], 23.83 K | – | – | 18.39
[2], 26.43 K | – | – | 21.5
[2], 29.31 K | – | – | 24.82
[2], 30 K | – | – | 25.6
[2], 32.52 K | – | – | 28.38
[2], 36.12 K | – | – | 32.14
[2], 39.68 K | – | – | 35.64
[2], 40 K | – | – | 35.96
[2], 43.66 K | – | – | 39.34
[2], 48.56 K | – | – | 43.53
[2], 50 K | – | – | 44.72
[2], 52.54 K | – | – | 46.74
[2], 53.49 K | – | – | 47.45
[2], 53.98 K | – | – | 47.92
[2], 57.46 K | – | – | 50.56
[2], 58.64 K | – | – | 51.46
[2], 60 K | – | – | 52.34
[2], 60.03 K | – | – | 52.29
[2], 63.2 K | – | – | 54.47
[2], 64.47 K | – | – | 55.29
[2], 69.56 K | – | – | 58.68
[2], 70 K | – | – | 58.93
[2], 76.52 K | – | – | 62.82

Settings | Molar enthalpy of transition or fusion [kcal/mol] | Triple point temperature [K]
Crystal | – | 270.48
[1] | 2.992 | –
